Measured values: US5925331A, “Technetium-99m labeled peptides for thrombus imaging” (Diatide, Inc., priority 1995, dated 1999)
pIC50: −log10 of the molar value.

These molecules were tested on human platelets in platelet-rich plasma (assay: Platelet aggregation inhibition assay (ADP-induced, platelet-rich plasma)). Conditions: fresh human platelet-rich plasma, 300,000 platelets per microliter; ADP 10 to 15 micromolar; read-out: IC50: concentration of reagent that inhibits by 50% the aggregation of human platelets in platelet-rich plasma induced by ADP.
Assay type: cell-based
Procedure: Platelet aggregation studies were performed essentially as described by Zucker (1989, Methods in Enzymol. 169: 117-133). Briefly, platelet aggregation was assayed with or without putative platelet aggregation inhibitory compounds using fresh human platelet-rich plasma, comprising 300,000 platelets per microliter. Platelet aggregation was induced by the addition of a solution of adenosine diphosphate to a final concentration of 10 to 15 micromolar, and the extent of platelet aggregation monitored using a Bio/Data aggregometer (Bio/Data Corp., Horsham, Pa.). The concentrations of platelet aggregation inhibitory compounds used were varied from 0.1 to 500 μg/mL. The concentration of inhibitor that reduced the extent of platelet aggregation by 50% (defined as the IC50) was determined from plots of inhibitor concentration versus extent of platelet aggregation. An inhibition curve for peptide RGDS was determined for each batch of platelets tested as a positive control.

pIC50	Molecule
5.10	GRGDVRGDFKCAcm GCAcm amide [Peptide P97]
4.82	GRDGVRGDFCAcm GCAcm amide [Peptide P98]
6.30	CC(=O)NCSC[C@H](NC(=O)CNC(=O)CNC(=O)[C@@H]1CSCC(=O)N[C@H](Cc2ccc(O)cc2)C(=O)N[C@@H](CSCCCN)C(=O)NCC(=O)N[C@@H](CC(=O)O)C(=O)N1)C(=O)NCC(=O)N[C@@H](CSCNC(C)=O)C(=O)NCC(=O)NCC(=O)N[C@H](Cc1ccccc1)C(=O)N1CCC[C@H]1C(=O)N[C@@H](CCCNC(=N)N)C(=O)N1CCC[C@H]1C(=O)NCC(N)=O [Peptide P245, CH2 CO--YD.Apc.GDCGGCAcm GCAcm GGFD PRPGamide]

Molecule	pIC50
(CH2 CO--YD ApcGDCKGCAcm GCAcm GGC-amide)2 --BSME [Peptide P381]	7.46
